According to patent US20230364061A1, “THIAZOLIDINE DERIVATIVES FOR INHIBITING CAV3.2-USP5 INTERACTIONS” (Zymedyne Therapeutics Inc., priority 2020, published 2023):

What was measured:
[1] = system: recombinant USP5 (long or short splice variant); assay: USP5 deubiquitinase (DUB) activity assay; format: biochemical; conditions: recombinant long or short form of USP5, fluorescence over time (FIG. 8)
Protocol: FIG. 8 examines the effect of exemplary compound II-1 on in vitro deubiqutinase activity of USP5. Here recombinant USP5 (either the long or the short splice variant) is incubated with a ubiquitinated substrate, and deubiquitination is measured via a fluorescence readout as a function of time.
To rule out the possibility that exemplary compound II-1 might mediate its analgesic effects by altering the deubiquitinase (DUB) activity of USPS rather than by disrupting the interactions with the channel, a DUB assays was conducted (FIG. 8). Here, a ubiquitinated substrate (ubiquitin-rhodamine110-glycine) is incubated with recombinant long or short forms of USP5, and deubiquitination of the substrate as a function of time is measured via a fluorescence readout. Both the long form and the short form of USP5 lead to deubiquitination of the substrate, as evident from an increasing and plateauing fluorescence signal (528 nm emission in response to 485 nm excitation). The commercially available DUB inhibitor Degrasyn which is used as a positive control prevents this.

[2] = biological target: T1, USP5-Cav3.2 interaction (recombinant USP5 binding to immobilized Cav3.2 domain III-IV linker peptides) (Homo sapiens, UniProt P45974); assay: Cav3.2-USP5 ELISA assay; conditions: for Percent Inhibition: Cav3.2-USP5 ELISA of Example 1, concentration not given
T1 sequence (P45974 1-858): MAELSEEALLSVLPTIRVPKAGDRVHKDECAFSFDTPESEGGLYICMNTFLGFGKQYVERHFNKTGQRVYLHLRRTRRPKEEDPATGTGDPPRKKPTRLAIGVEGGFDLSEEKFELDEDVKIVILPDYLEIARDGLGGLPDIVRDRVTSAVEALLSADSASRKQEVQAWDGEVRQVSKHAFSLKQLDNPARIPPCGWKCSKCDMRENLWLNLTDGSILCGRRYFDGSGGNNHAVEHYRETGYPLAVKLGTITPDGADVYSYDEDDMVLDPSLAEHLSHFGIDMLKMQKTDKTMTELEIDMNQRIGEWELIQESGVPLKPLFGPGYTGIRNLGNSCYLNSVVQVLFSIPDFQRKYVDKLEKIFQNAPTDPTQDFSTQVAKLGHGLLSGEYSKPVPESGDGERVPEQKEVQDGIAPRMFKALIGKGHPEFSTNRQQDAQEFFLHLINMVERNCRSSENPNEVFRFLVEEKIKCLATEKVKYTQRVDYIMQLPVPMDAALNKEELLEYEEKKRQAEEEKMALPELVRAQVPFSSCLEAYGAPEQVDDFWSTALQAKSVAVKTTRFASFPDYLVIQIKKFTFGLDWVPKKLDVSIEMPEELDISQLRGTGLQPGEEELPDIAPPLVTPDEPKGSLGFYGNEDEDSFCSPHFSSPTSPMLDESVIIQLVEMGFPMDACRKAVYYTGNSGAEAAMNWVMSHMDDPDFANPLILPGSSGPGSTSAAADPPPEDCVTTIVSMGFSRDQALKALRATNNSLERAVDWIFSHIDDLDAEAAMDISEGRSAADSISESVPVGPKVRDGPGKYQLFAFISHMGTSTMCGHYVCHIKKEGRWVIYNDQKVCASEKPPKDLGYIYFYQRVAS
Excerpt: FIG. 3 is a schematic of the high throughput ELISA assay used to screen the exemplary compound of the applications. Here the Cav3.2 III-1V linker is immobilized and then recombinant USP5 is allowed to bind. Binding is detected via antibodies conjugated to horseradish peroxidase for a fluorescent readout. Compounds are applied and a reduction in fluorescence is indicative of a disruption of USP5-Cav3.2 interactions.
A high throughput ELISA assay was used to screen the exemplary compounds of the applications (FIG. 3). The ELISA is based on the binding of recombinant USP5 to immobilized Cav3.2 domain […] linker peptides. Binding interactions were detected using USP5 antibodies, and a secondary antibody conjugated to horseradish peroxidase, leading to a fluorescence readout. The ELISA was converted into a high through-put format 384 well plate. Multiple compound libraries were screened for small organic molecules that disrupt the USP5—Cav3.2 interaction. A number of hits were identified at the standard screening concentration, and the dose dependence of hits was investigated. Select actives were subjected to a secondary biochemical assays based on co-immunoprecipitations of USP5 and Cav3.2 from mouse neuronal tissue.
In the ELISA assay from Example 1, compound II-1 was added at varying concentrations, and the ability of II-1 to inhibit the USP5-Cav3.2 interaction examined. The percentage of inhibition as a function of drug concentration could be fitted using the Hill equation.

[3] = biological target: T2, association of USP5 and Cav3.2 channels (Mus musculus, UniProt P56399); assay: Co-immunoprecipitation of USP5 with Cav3.2 from brain lysate; format: binding; conditions: 1 uM compound, whole brain lysates, n=5 (FIG. 4)
T2 construct: using whole brain lysates and probed for USP5; from tissue; host or cells: mouse whole brain homogenate/lysate
T2 sequence (P56399 1-858): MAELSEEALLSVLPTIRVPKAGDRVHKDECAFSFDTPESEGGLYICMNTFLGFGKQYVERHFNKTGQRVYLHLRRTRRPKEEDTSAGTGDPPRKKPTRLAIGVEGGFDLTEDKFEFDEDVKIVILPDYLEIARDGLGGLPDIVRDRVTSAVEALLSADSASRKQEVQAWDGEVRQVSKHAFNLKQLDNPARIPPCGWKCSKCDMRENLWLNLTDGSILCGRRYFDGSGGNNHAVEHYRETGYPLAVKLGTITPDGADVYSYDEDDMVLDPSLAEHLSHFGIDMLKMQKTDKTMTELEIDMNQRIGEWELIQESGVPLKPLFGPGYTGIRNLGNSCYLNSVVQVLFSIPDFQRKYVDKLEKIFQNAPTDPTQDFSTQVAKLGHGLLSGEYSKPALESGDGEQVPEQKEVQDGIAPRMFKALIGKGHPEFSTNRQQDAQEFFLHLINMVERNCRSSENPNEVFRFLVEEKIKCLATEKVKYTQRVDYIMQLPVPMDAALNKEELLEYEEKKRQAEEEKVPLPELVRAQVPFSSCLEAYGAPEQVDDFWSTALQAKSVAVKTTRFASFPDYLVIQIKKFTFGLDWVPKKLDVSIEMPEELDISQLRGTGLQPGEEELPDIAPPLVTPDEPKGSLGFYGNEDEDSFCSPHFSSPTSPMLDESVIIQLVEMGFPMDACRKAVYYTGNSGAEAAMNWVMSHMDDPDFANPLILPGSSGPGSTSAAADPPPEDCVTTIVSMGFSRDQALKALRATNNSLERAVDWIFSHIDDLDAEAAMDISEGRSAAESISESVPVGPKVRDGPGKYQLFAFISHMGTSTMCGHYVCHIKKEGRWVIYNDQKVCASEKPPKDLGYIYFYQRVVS
Protocol: FIG. 4 is a graph showing the results of the of immunoprecipitation assay with Cav3.2 channels and a rabbit 3.2 polyclonal antibody using whole brain lysates and probed for USP5 (n=5). Quantifications were normalized to bound USP5 to Cav3.2 IP/alpha-tubulin. 1 uM of exemplary compounds II-1 and II-2 were used in the incubation. 5 uM of a positive control compound was used in the incubation.
A co-immunoprecipitation assay was implemented as a secondary screen for actives derived from the compound library screen. Moause brain homogenate was prepared, and the tissue containing was incubated with a rabbit Cav3.2 polyclonal antibody to immunoprecipitate Cav3.2 channel complexes. The precipitates were run on a Western blot and probed with an antibody against USP5 (n=5). Band intensities for bound USP5 were quantified and normalized to alpha-tubulin (FIG. 4). 1 μM of exemplary compounds II-1 and II-2 were used in the incubation. 5 μM of a control compound identified in a previous library screen was used as a positive control.

[4] = system: formalin induced nocifensive responses; assay: Formalin-induced pain assay; format: in vivo; conditions: mice, intrathecal delivery, both phases (FIG. 5)
Protocol: Formalin was injected into the hindpaw of a mouse, and the time that the mouse spent licking and biting its paw was determined. There are two phases of these nocifensive behavioral responses—phase I occurs immediately after formalin injection and reflects an acute response, phase II occurs approximately thirty minutes after formalin injection and reflects inflammatory pain. II-1 inhibited the duration of both phases in a dose dependent manner. […] Formalin injection into the hindpaw mediates nocifensive responses (paw licking, biting). There is an initial phase that reflects an acute responses to formalin injection, followed by a quiescent period and a second phase of nocifensive behaviors that reflects inflammatory pain. The duration of the responses is reflective of the amount of pain. […] The same doses were then used in a chronic inflammatory pain assay (i.e. CFA).

[5] = system: CFA induced thermal hypersensitivity; assay: Complete Freund's Adjuvant (CFA) model of chronic inflammatory pain, thermal hypersensitivity; format: in vivo, mice
Protocol: The latency to paw withdrawal in response to radiate heat to the paw decreases after CFA, and II-1 reverses this hypersensitivity in a dose dependent manner, indicating a strong analgesic effect of II-1. […] CFA injection into the hind paw leads to long lasting (weeks) mechanical and thermal hypersensitivity of the hind paw that is reflective of chronic inflammatory pain states. Thermal hypersensitivity is assessed by applying a radiant heat source to the hind paw of the animal and measuring the time between application of the heat source and the withdrawal of the paw. In CFA treated animals, the withdrawal latencies are dramatically shortened, and reflective of thermal hypersensitivity (i.e. thermal pain responses). […] Two asterisks indicate statistical significance at the 0.01 level, three asterisks indicate statistical significance at the 0.001 level relative to CFA+vehicle. FIG. 7 compares the effects of exemplary compound II-1 on CFA mediated thermal hypersensitivity in wild type mice and in mice lacking Cav3.2 channels (45 minutes after administration of the compound). […] Cav3.2^-/- mice have compensatory mechanisms that lead to increased thermal hypersensitivity in response to CFA even though Cav3.2 channels are absent.

[6] = system: CFA induced thermal hypersensitivity in Cav3.2-/- mice; assay: CFA thermal hypersensitivity in Cav3.2 null mice; format: in vivo; conditions: 45 minutes after administration (FIG. 7)
Protocol: FIG. 7 compares the effects of exemplary compound II-1 on CFA mediated thermal hypersensitivity in wild type mice and in mice lacking Cav3.2 channels (45 minutes after administration of the compound). […] Cav3.2^−/− mice have compensatory mechanisms that lead to increased thermal hypersensitivity in response to CFA even though Cav3.2 channels are absent.

[7] = system: diabetic, visceral, inflammatory and neuropathic pain; conditions: hits of an initial CDRD active compound library screen; cited from earlier work

| Percent Inhibition [2] | SMILES | further results |
| --- | --- | --- |
|  | CCC[C@H](NC(=O)/C(C#N)=C/c1cccc(Br)n1)c1ccccc1 [Degrasyn, reference compound] | deubiquitination of ubiquitin-rhodamine110-glycine by USP5 (fluorescence readout) [1]: inhibits this fluorescence signal |
| 100% | CC(O)C(NCC1SC(=S)NC1=O)C(=O)O (stereo not drawn) [II-1] | dose-response of percent inhibition in the Cav3.2-USP5 ELISA ([2]; varying concentrations, fitted with the Hill equation (FIG. 9)): dose dependence of the effect; USP5 bound to Cav3.2 IP, normalized to alpha-tubulin [3]: disrupt the association of USP5 and Cav3.2 channels in neuronal tissue; duration of nocifensive responses (paw licking, biting), phase I and phase II [4]: response time is shortened in a dose dependent manner; thermal paw withdrawal latency after CFA ([5]; mice, intrathecal delivery, dose response (FIG. 6)): shortened latencies are reversed in a dose dependent manner; thermal paw withdrawal latency after CFA, wild type mice ([5]; wild type Cav3.2+/+ mice, 45 minutes after administration (FIG. 7)): reversed the CFA-induced reduction in thermal paw withdrawal latencies; thermal paw withdrawal latency after CFA, Cav3.2 knockout mice [6]: no longer able to reverse CFA induced thermal hypersensitivity; deubiquitination of ubiquitin-rhodamine110-glycine by USP5 (fluorescence readout) [1]: does not mediate DUB inhibition |
| 100% | CC(CO)(CO)NCC1SC(=S)NC1=O (stereo not drawn) [II-2] | USP5 bound to Cav3.2 IP, normalized to alpha-tubulin [3]: disrupt the association of USP5 and Cav3.2 channels in neuronal tissue; deubiquitination of ubiquitin-rhodamine110-glycine by USP5 (fluorescence readout) [1]: fail to inhibit deubiquitination |
| 100% | CC(C)C(NCC1SC(=S)NC1=O)C(=O)O (stereo not drawn) [II-3] |  |
| 100% | CC(C)CC(NCC1SC(=S)NC1=O)C(=O)O (stereo not drawn) [II-4] |  |
| 86% | CCC(C)C(NCC1SC(=S)NC1=O)C(=O)O (stereo not drawn) [II-5] |  |
| 87% | NCCCCC(NCC1SC(=S)NC1=O)C(=O)O (stereo not drawn) [II-6] |  |
| 85% | O=C(O)CN(CC(=O)O)CC1SC(=S)NC1=O (stereo not drawn) [II-7] |  |
| 82% | O=C(O)CCNCC1SC(=S)NC1=O (stereo not drawn) [II-8] |  |
| 6% | O=C1NC(=S)SC1CNCCCO (stereo not drawn) [II-9] |  |
| 28% | CC(C)CCC(CCC(C)C)NCC1SC(=S)NC1=O (stereo not drawn) [II-10] |  |
| 75% | O=C1NC(=S)SC1CNC1(CCO)CCCCC1 (stereo not drawn) [II-11] |  |
| 82% | O=C1NC(=S)SC1CNC1CCCCC1 (stereo not drawn) [II-12] |  |
|  | O=c1c(O)c(-c2ccc(O)c(O)c2)oc2c(O)c(O)cc(O)c12 [gossypetin] | protection from pain in mice [7]: protect from diabetic, visceral, inflammatory and neuropathic pain in mice |
|  | Cc1ccc(C(=O)Nc2ccc(S(=O)(=O)O)c3cc(S(=O)(=O)O)cc(S(=O)(=O)O)c23)cc1NC(=O)c1cccc(NC(=O)Nc2cccc(C(=O)Nc3cc(C(=O)Nc4ccc(S(=O)(=O)O)c5cc(S(=O)(=O)O)cc(S(=O)(=O)O)c45)ccc3C)c2)c1 [suramin] | protection from pain in mice [7]: protect from diabetic, visceral, inflammatory and neuropathic pain in mice |
